{"source": "patent US9149038B2", "about": "“4-amino-6-(heterocyclic)picolinates and 6-amino-2-(heterocyclic)pyrimidine-4-carboxylates and their use as herbicides” (Dow AgroSciences LLC, priority 2013, dated 2015)", "key": {"[1]": {"test_system": "Key Broadleaf Weed and Crop Species", "experiment": "Post-Emergent Test II: postemergent herbicidal activity, visual rating after 14 d (Table 7)", "assay_type": "in vivo", "conditions": "post-emergence, 336 h; for pest or weed control at 35 g/ha: 35 g ai/ha; for pest or weed control at 70 g/ha: 70 g ai/ha; for pest or weed control at 140 g/ha: 140 g ai/ha", "how_it_was_run": "(§1)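 Plants were raised in a greenhouse for 7-21 d and treated once at the first or second true leaf stage. Compounds, dissolved in 97:3 acetone:DMSO then diluted into an aqueous acetone/isopropanol/crop oil/Triton X-155 carrier, were applied by overhead track sprayer at 187 L/ha. After 14 d with subirrigation, injury was scored visually from 0 (none) to 100 (complete kill).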"}, "[2]": {"test_system": "Key Grass and Sedge Weeds as well as Grass Crops", "experiment": "Post-Emergent Test II: postemergent herbicidal activity, visual rating after 14 d (Table 8)", "assay_type": "in vivo", "conditions": "post-emergence, 336 h; for pest or weed control at 35 g/ha: 35 g ai/ha; for pest or weed control at 70 g/ha: 70 g ai/ha; for pest or weed control at 140 g/ha: 140 g ai/ha", "how_it_was_run": "as §1"}, "[3]": {"conditions": "ABUTH: velvetleaf (Abutilon theophrasti), read-out: Visual Growth Reduction (%) 14 Days After Application ABUTH"}, "[4]": {"conditions": "AMARE: redroot pigweed (Amaranthus retroflexus), read-out: Visual Growth Reduction (%) 14 Days After Application AMARE"}, "[5]": {"conditions": "BRSNN: oilseed rape, canola (Brassica napus), read-out: Visual Growth Reduction (%) 14 Days After Application BRSNN"}, "[6]": {"conditions": "CHEAL: lambsquarters (Chenopodium album), read-out: Visual Growth Reduction (%) 14 Days After Application CHEAL"}, "[7]": {"conditions": "EPHHL: wild poinsettia (Euphorbia heterophylla), read-out: Visual Growth Reduction (%) 14 Days After Application EPHHL"}, "[8]": {"conditions": "HELAN: sunflower (Helianthus annuus), read-out: Visual Growth Reduction (%) 14 Days After Application HELAN"}, "[9]": {"conditions": "barnyardgrass (Echinochloa crus-galli), read-out: Visual Growth Reduction (%) 14 Days After Application, ECHCG"}, "[10]": {"conditions": "giant foxtail (Setaria faberi), read-out: Visual Growth Reduction (%) 14 Days After Application, SETFA"}, "[11]": {"conditions": "maize, corn (Zea mays), read-out: Visual Growth Reduction (%) 14 Days After Application, ZEAMX"}, "[12]": {"conditions": "rice (Oryza sativa), read-out: Visual Growth Reduction (%) 14 Days After Application, ORYSA"}, "[13]": {"conditions": "wheat, spring (Triticum aestivum), read-out: Visual Growth Reduction (%) 14 Days After Application, TRZAS"}, "[14]": {"conditions": "yellow nutsedge (Cyperus esculentus), read-out: Visual Growth Reduction (%) 14 Days After Application, CYPES"}}, "note": "Where two headings read alike, the source gives them in different places.", "data": [{"smiles": "Nc1cc(-c2ccc(Cl)c3c2OC(F)(F)O3)nc(C(=O)O)c1Cl", "note": "[Compound 87]", "values": [{"measurement": "pest or weed control at 35 g/ha", "setting": "[1]; [3]", "result": "75 to 84", "unit": "%"}, {"measurement": "pest or weed control at 70 g/ha", "setting": "[1]; [3]", "result": "85 to 94", "unit": "%"}, {"measurement": "pest or weed control at 140 g/ha", "setting": "[1]; [3]", "result": "85 to 94", "unit": "%"}, {"measurement": "pest or weed control at 35 g/ha", "setting": "[1]; [4]", "result": "95 to 100", "unit": "%"}, {"measurement": "pest or weed control at 70 g/ha", "setting": "[1]; [4]", "result": "95 to 100", "unit": "%"}, {"measurement": "pest or weed control at 140 g/ha", "setting": "[1]; [4]", "result": "95 to 100", "unit": "%"}, {"measurement": "pest or weed control at 35 g/ha", "setting": "[1]; [5]", "result": "60 to 74", "unit": "%"}, {"measurement": "pest or weed control at 70 g/ha", "setting": "[1]; [5]", "result": "75 to 84", "unit": "%"}, {"measurement": "pest or weed control at 140 g/ha", "setting": "[1]; [5]", "result": "85 to 94", "unit": "%"}, {"measurement": "pest or weed control at 35 g/ha", "setting": "[1]; [6]", "result": "95 to 100", "unit": "%"}, {"measurement": "pest or weed control at 70 g/ha", "setting": "[1]; [6]", "result": "95 to 100", "unit": "%"}, {"measurement": "pest or weed control at 140 g/ha", "setting": "[1]; [6]", "result": "95 to 100", "unit": "%"}, {"measurement": "pest or weed control at 35 g/ha", "setting": "[1]; [7]", "result": "0 to 29", "unit": "%"}, {"measurement": "pest or weed control at 70 g/ha", "setting": "[1]; [7]", "result": "0 to 29", "unit": "%"}, {"measurement": "pest or weed control at 140 g/ha", "setting": "[1]; [7]", "result": "0 to 29", "unit": "%"}, {"measurement": "pest or weed control at 35 g/ha", "setting": "[1]; [8]", "result": "75 to 84", "unit": "%"}, {"measurement": "pest or weed control at 70 g/ha", "setting": "[1]; [8]", "result": "75 to 84", "unit": "%"}, {"measurement": "pest or weed control at 140 g/ha", "setting": "[1]; [8]", "result": "75 to 84", "unit": "%"}, {"measurement": "pest or weed control at 35 g/ha", "setting": "[2]; [9]", "result": "0 to 29", "unit": "%"}, {"measurement": "pest or weed control at 70 g/ha", "setting": "[2]; [9]", "result": "0 to 29", "unit": "%"}, {"measurement": "pest or weed control at 140 g/ha", "setting": "[2]; [9]", "result": "0 to 29", "unit": "%"}, {"measurement": "pest or weed control at 35 g/ha", "setting": "[2]; [10]", "result": "0 to 29", "unit": "%"}, {"measurement": "pest or weed control at 70 g/ha", "setting": "[2]; [10]", "result": "0 to 29", "unit": "%"}, {"measurement": "pest or weed control at 140 g/ha", "setting": "[2]; [10]", "result": "0 to 29", "unit": "%"}, {"measurement": "pest or weed control at 35 g/ha", "setting": "[2]; [11]", "result": "0 to 29", "unit": "%"}, {"measurement": "pest or weed control at 70 g/ha", "setting": "[2]; [11]", "result": "0 to 29", "unit": "%"}, {"measurement": "pest or weed control at 140 g/ha", "setting": "[2]; [11]", "result": "0 to 29", "unit": "%"}, {"measurement": "pest or weed control at 35 g/ha", "setting": "[2]; [12]", "result": "0 to 29", "unit": "%"}, {"measurement": "pest or weed control at 70 g/ha", "setting": "[2]; [12]", "result": "0 to 29", "unit": "%"}, {"measurement": "pest or weed control at 140 g/ha", "setting": "[2]; [12]", "result": "0 to 29", "unit": "%"}, {"measurement": "pest or weed control at 35 g/ha", "setting": "[2]; [13]", "result": "0 to 29", "unit": "%"}, {"measurement": "pest or weed control at 70 g/ha", "setting": "[2]; [13]", "result": "0 to 29", "unit": "%"}, {"measurement": "pest or weed control at 140 g/ha", "setting": "[2]; [13]", "result": "0 to 29", "unit": "%"}, {"measurement": "pest or weed control at 35 g/ha", "setting": "[2]; [14]", "result": "0 to 29", "unit": "%"}, {"measurement": "pest or weed control at 70 g/ha", "setting": "[2]; [14]", "result": "0 to 29", "unit": "%"}, {"measurement": "pest or weed control at 140 g/ha", "setting": "[2]; [14]", "result": "0 to 29", "unit": "%"}]}]}
